Measured values from patent US5536822A, “γ-phosphate linked adenosine 5' triphosphate sepharose” (University of Virginia Alumni Patents Foundation, priority 1994, dated 1996).

Assays:
p42^mapk = target: T1, p42^mapk (Mus musculus, UniProt P63085); experiment: Inhibition constant of the ATP derivative / Km for ATP, p42^mapk assay; type: biochemical; details: 20 μM ATP
T1 construct: made in house
Description: (§1) [γ-^32 P] ATP was synthesized according to the procedure set forth in Johnson et al., Advances in Cyclic Nucleotide Research, 10:135-167 (1979). The catalytic subunit of cyclic-AMP-dependent protein kinase was purchased from Promega. p60^c-arc was obtained from the Department of Microbiology, University of Virginia. Recombinant p42^mapk was purified as described in Haystead et al., (1992) FEBS Lett., 306:17-22. STE7 antibody was obtained from the University of Vancouver, Canada.
(§2) The 42-kDa MAP kinase (p42^mapk) and MAPKK were assayed as described previously (Haystead et al. (1992) FEBS. Lett., 306:17-22). The cyclic-A kinase assays (30 μl) included 1 μg cyclic-A kinase, 2 mM Kemptide, 50 mM Hepes, pH 7.4, 1 mM dithiothreitol, 200 μM ATP, 5 mM MgCl2. […]
(§3) In order to assess the effectiveness of adenosine 5'-(γ-4-aminophenyl)triphosphate as an affinity ligand for protein kinases, the inhibition constants (Ki) of the derivative were determined for four different protein kinases, namely, p42^mapk, cyclic-A kinase, MAPKK and p60^c-arc (Table 1). […] This also facilitated comparisons for the relative binding constants determined with other ATP analogs (Flockhart et al. (1984) Eur. J. Biochem., 140:289-295; Hoppe et al. (1972) Eur. J. Biochem., 80:369-372; Taylor et al. (1990) Peptides and Protein Phosphorylation (Kemp et al.) pp 2-32, CRC Press).

MAPKK = target: T2, MAPKK (Oryctolagus cuniculus, UniProt P29678); experiment: Inhibition constant of the ATP derivative / Km for ATP, MAPKK assay; type: biochemical, rabbit
T2 construct: MAPKK, from rabbit skeletal muscle, was partially purified 600-fold; from tissue; host or cells: skeletal muscle (back and hind-limb) of a female New Zealand white rabbit
Protocol: A fed female New Zealand white rabbit was euthanized by lethal injection with phenobarbital via the marginal ear vein. The back and hind-limb skeletal muscle (300 g) were rapidly excised, minced and homogenized at 4° C. with 2.5 vol. solution C (50 mM 2-glycerophosphate, pH 7.3, 1.5 mM EGTA, 0.15 μM sodium orthovanidate, 1 mM dithiothreitol, 1 mM phenylmethanesulfonyl fluoride, 1 mM benzamidine) containing 6 μg/ml leupeptin. All subsequent steps were carried out at 4° C. […] The DEAE was packed into a glass column (20 cm×50 cm) washed with solution C until the absorbance at […] of the eluate was <0.005 absorbance. […]
as §3

[1] = tested on: four different protein kinases, namely, p42^mapk, cyclic-A kinase, MAPKK and p60^c-arc; experiment: Inhibition of four protein kinases by the ATP derivative (summary over all enzymes); type: biochemical
Protocol: The 42-kDa MAP kinase (p42^mapk) and MAPKK were assayed as described previously (Haystead et al. (1992) FEBS. Lett., 306:17-22). The cyclic-A kinase assays (30 μl) included 1 μg cyclic-A kinase, 2 mM Kemptide, 50 mM Hepes, pH 7.4, 1 mM dithiothreitol, 200 μM ATP, 5 mM MgCl2. Reactions were terminated by spotting 25 μl assay mixture onto P81 paper as described in Haystead et al. (1992) FEBS Lett., 306:17-22. p60^c-arc assays were similar, except a 2 mM peptide (Rossomando et al., 1992) Proc. Natl. Acad. Sci., 89:5221-5225) was used as the substrate.
In order to assess the effectiveness of adenosine 5'-(γ-4-aminophenyl)triphosphate as an affinity ligand for protein kinases, the inhibition constants (Ki) of the derivative were determined for four different protein kinases, namely, p42^mapk, cyclic-A kinase, MAPKK and p60^c-arc (Table 1). The Ki was determined in the presence of 20 μM ATP. However, since the Km for ATP varied for each protein kinase tested, for comparative purposes it was convenient to determine the Ki /Km quotient (Table 1). This also facilitated comparisons for the relative binding constants determined with other ATP analogs (Flockhart et al. (1984) Eur. J. Biochem., 140:289-295; Hoppe et al. (1972) Eur. J. Biochem., 80:369-372; Taylor et al. (1990) Peptides and Protein Phosphorylation (Kemp et al.) pp 2-32, CRC Press).

p60^c-src = target: T3, p60^c-src (Homo sapiens, UniProt P12931); experiment: Inhibition constant of the ATP derivative / Km for ATP, p60^c-src assay (peptide substrate); type: biochemical; details: 20 μM ATP
T3 construct: Department of Microbiology, University of Virginia (obtained from; not a purchase)
Description: as §1, §2, §3

Cyclic A kinase = Cyclic A kinase (Bos taurus, UniProt P00517); experiment: Inhibition constant of the ATP derivative / Km for ATP, cyclic-A kinase assay (Kemptide substrate)
[2] = [Mg^2+] reduced to levels equimolar with free ATP

T2 sequence (P29678 whole entry): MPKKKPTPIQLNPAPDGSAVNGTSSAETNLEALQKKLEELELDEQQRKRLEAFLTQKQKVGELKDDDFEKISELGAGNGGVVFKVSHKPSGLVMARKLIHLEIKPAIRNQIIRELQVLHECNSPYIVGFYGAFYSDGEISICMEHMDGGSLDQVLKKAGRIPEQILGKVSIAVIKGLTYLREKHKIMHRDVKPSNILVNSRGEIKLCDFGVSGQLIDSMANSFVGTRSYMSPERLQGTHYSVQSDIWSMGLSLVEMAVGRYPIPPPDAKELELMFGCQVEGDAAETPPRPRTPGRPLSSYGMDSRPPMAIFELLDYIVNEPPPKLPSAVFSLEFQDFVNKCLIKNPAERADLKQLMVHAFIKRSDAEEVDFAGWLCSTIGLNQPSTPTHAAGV
T1 sequence (P63085 whole entry): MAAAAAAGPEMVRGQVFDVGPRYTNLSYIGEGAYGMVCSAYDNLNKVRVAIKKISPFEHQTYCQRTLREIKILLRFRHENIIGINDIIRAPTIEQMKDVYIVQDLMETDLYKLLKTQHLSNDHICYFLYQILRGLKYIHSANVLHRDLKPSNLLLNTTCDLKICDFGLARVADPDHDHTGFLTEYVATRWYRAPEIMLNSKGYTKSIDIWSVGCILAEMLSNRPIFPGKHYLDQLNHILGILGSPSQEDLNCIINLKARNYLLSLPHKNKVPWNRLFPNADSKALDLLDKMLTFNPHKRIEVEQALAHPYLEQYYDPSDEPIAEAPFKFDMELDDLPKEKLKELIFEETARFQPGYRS
T3 sequence (P12931 whole entry): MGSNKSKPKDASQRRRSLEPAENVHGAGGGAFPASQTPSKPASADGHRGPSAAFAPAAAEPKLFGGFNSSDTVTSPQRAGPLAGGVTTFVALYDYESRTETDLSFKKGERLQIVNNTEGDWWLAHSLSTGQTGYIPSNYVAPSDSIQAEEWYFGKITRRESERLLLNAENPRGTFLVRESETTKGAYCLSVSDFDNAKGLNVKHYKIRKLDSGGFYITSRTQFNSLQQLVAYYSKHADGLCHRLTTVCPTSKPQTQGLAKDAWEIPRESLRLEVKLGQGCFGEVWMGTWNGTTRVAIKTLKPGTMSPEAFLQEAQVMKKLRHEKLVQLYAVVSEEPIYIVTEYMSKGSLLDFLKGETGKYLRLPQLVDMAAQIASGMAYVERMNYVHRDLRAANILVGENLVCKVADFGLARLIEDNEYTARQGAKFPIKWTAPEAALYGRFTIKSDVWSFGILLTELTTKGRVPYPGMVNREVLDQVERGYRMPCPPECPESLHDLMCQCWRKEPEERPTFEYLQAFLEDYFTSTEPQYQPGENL

Nc1ccc(OP(=O)(O)OP(=O)(O)OP(=O)(O)OC[C@H]2O[C@@H](n3cnc4c(N)ncnc43)[C@H](O)[C@@H]2O)cc1 [adenosine-5'-(γ-4-aminophenyl)triphosphate]
Ki /Km (p42^mapk; Km for ATP): 10.02 | Ki (p42^mapk; read-out: Ki ± SDM): 75.2 ± 8.2 µM | Ki (MAPKK): 176 ± 22.1 µM | Ki /Km (MAPKK; MAPKK, 20 μM ATP, Km for ATP): 15.20 | competition with ATP ([1]; 20 μM ATP): competes with ATP | Ki /Km quotient ([1]; 20 μM ATP, range over four enzymes): 10-20 | Ki ([1]; 20 μM ATP, range over four enzymes, read-out: apparent Ki values obtained against each enzyme): 75 to 180 µM | effect on the Ki /Km quotient of reduced [Mg^2+] [1, 2]: no effect | effect on the Ki of reduced [Mg^2+] [1, 2]: no effect | Ki /Km (p60^c-src; Km for ATP): 19.35 | Ki (p60^c-src; read-out: Ki ± SDM): 120 ± 13.6 µM | Ki (Cyclic A kinase): 104 ± 11.6 µM | Ki /Km (Cyclic A kinase; cyclic A kinase, 20 μM ATP, Km for ATP): 14.60
